In this experiment the test system is MV-4-11 cells. The experiment can be described thus: Gene expression microarray analysis (Affymetrix PrimeView) and GSEA. It counts as cell-based, human. As to conditions: ProbeSet 11718977_a_at; LIST B. Also noted: RFU PODN (11730768_x_at) / Fold change /veh PODN (11730768_x_at) / RFU LINC00158 (11744669_a_at) / Fold change /veh LINC00158 (11744669_a_at) / RFU DUSP10 (11751237_a_at) / Fold change /veh DUSP10 (11751237_a_at) / RFU ID3 (11757404_x_at) / Fold change /veh ID3 (11757404_x_at) / RFU PLEKHG5 (11737974_s_at) / Fold change /veh PLEKHG5 (11737974_s_at) / RFU LRRC4B (11730491_at) / Fold change /veh LRRC4B (11730491_at) / RFU GIMAP4 (11747438_a_at) / Fold change /veh GIMAP4 (11747438_a_at) / RFU KRT8 (11758183_x_at) / Fold change /veh KRT8 (11758183_x_at) / RFU CNN1 (11734310_a_at) / Fold change /veh CNN1 (11734310_a_at) / RFU VPS37D (11726825_at) / Fold change /veh VPS37D (11726825_at) / RFU C10orf10 (11716522_x_at) / Fold change /veh C10orf10 (11716522_x_at) / RFU KIR2DL2 /// KIR2DL4 /// KIR2DL5A /// KIR2DL5B /// KIR2DS1 /// KIR2DS2 /// KIR2DS3 /// KIR2DS4 /// KIR3DL3 /// KIR3DL3 /// KIR3DS1 (11738374_at) / Fold change /veh KIR2DL2 /// KIR2DL4 /// KIR2DL5A /// KIR2DL5B /// KIR2DS1 /// KIR2DS2 /// KIR2DS3 /// KIR2DS4 /// KIR3DL3 /// KIR3DL3 /// KIR3DS1 (11738374_at) / RFU C1QL1 (11718748_at) / Fold change /veh C1QL1 (11718748_at) / RFU TMPRSS4 (11747572_a_at) / Fold change /veh TMPRSS4 (11747572_a_at) / RFU HAMP (11756126_x_at) / Fold change /veh HAMP (11756126_x_at) / RFU RNFT2 (11725882_a_at) / Fold change /veh RNFT2 (11725882_a_at) / RFU NR4A2 (11747474_a_at) / Fold change /veh NR4A2 (11747474_a_at) / RFU ABCC12 (11746883_a_at) / Fold change /veh ABCC12 (11746883_a_at) / RFU TMEM136 (11760407_x_at) / Fold change /veh TMEM136 (11760407_x_at) / RFU CLDN22 /// WWC2 (11732394_at) / Fold change /veh CLDN22 /// WWC2 (11732394_at) / RFU HLA-DPB1 (11760878_x_at) / Fold change /veh HLA-DPB1 (11760878_x_at) / RFU SPINT1 (11716480_a_at) / Fold change /veh SPINT1 (11716480_a_at) / RFU GAP43 (11754022_s_at) / Fold change /veh GAP43 (11754022_s_at) / RFU A4GNT (11735810_at) / Fold change /veh A4GNT (11735810_at) / RFU PRB3 (11715151_x_at) / Fold change /veh PRB3 (11715151_x_at) / RFU TUBB4B (11761932_at) / Fold change /veh TUBB4B (11761932_at) / RFU CAPN14 (11732068_a_at) / Fold change /veh CAPN14 (11732068_a_at) / RFU TMCC2 (11721928_a_at) / Fold change /veh TMCC2 (11721928_a_at) / RFU IRGQ (11745062_a_at) / Fold change /veh IRGQ (11745062_a_at) / RFU FAM174B (11720279_a_at) / Fold change /veh FAM174B (11720279_a_at) / RFU TMPRSS4 (11748680_a_at) / Fold change /veh TMPRSS4 (11748680_a_at) / RFU FAM212B (11763350_a_at) / Fold change /veh FAM212B (11763350_a_at) / RFU PLEKHG5 (11743358_a_at) / Fold change /veh PLEKHG5 (11743358_a_at) / RFU ZSCAN30 (11745921_a_at) / Fold change /veh ZSCAN30 (11745921_a_at) / RFU CMKLR1 (11741424_a_at) / Fold change /veh CMKLR1 (11741424_a_at) / RFU LOC101060620 /// MAPK8IP1 (11723275_at) / Fold change /veh LOC101060620 /// MAPK8IP1 (11723275_at) / RFU SPTSSB (11747773_x_at) / Fold change /veh SPTSSB (11747773_x_at) / RFU PRSS12 (11739890_at) / Fold change /veh PRSS12 (11739890_at) / RFU BIN1 (11741810_x_at) / Fold change /veh BIN1 (11741810_x_at) / RFU WNT11 (11732464_a_at) / Fold change /veh WNT11 (11732464_a_at) / RFU C10orf10 (11716521_a_at) / Fold change /veh C10orf10 (11716521_a_at) / RFU C5orf56 (11738089_at) / Fold change /veh C5orf56 (11738089_at) / RFU CYB561 (11721691_x_at) / Fold change /veh CYB561 (11721691_x_at) / RFU ANKRD19P (11752326_a_at) / Fold change /veh ANKRD19P (11752326_a_at) / RFU OR2T12 /// OR2T33 /// OR2T8 (11738714_s_at) / Fold change /veh OR2T12 /// OR2T33 /// OR2T8 (11738714_s_at) / RFU VCAN (11748164_a_at) / Fold change /veh VCAN (11748164_a_at) / RFU JSRP1 (11732532_at) / Fold change /veh JSRP1 (11732532_at) / RFU KRTAP10-11 (11738290_x_at) / Fold change /veh KRTAP10-11 (11738290_x_at) / RFU MYO3A (11730013_a_at) / Fold change /veh MYO3A (11730013_a_at) / RFU EBF3 (11725865_a_at) / Fold change /veh EBF3 (11725865_a_at) / RFU CAMK2N1 (11719241_x_at) / Fold change /veh CAMK2N1 (11719241_x_at) / RFU C5orf56 (11738088_a_at) / Fold change /veh C5orf56 (11738088_a_at) / RFU OLFML3 (11715873_a_at) / Fold change /veh OLFML3 (11715873_a_at) / RFU LOC100653217 /// NTM (11731650_a_at) / Fold change /veh LOC100653217 /// NTM (11731650_a_at) / RFU MAPK11 (11762145_a_at) / Fold change /veh MAPK11 (11762145_a_at) / RFU FIZ1 (11724087_x_at) / Fold change /veh FIZ1 (11724087_x_at) / RFU OASL (11726364_x_at) / Fold change /veh OASL (11726364_x_at) / RFU SOX15 (11748057_x_at) / Fold change /veh SOX15 (11748057_x_at) / RFU CD79A (11719716_a_at) / Fold change /veh CD79A (11719716_a_at) / RFU HIST1H1D (11736915_at) / Fold change /veh HIST1H1D (11736915_at) / RFU CASKIN2 (11723855_a_at) / Fold change /veh CASKIN2 (11723855_a_at) / RFU LOC730098 (11760151_x_at) / Fold change /veh LOC730098 (11760151_x_at) / RFU OR4N2 (11742367_at) / Fold change /veh OR4N2 (11742367_at) / RFU PRRT2 (11749266_a_at) / Fold change /veh PRRT2 (11749266_a_at) / RFU SNX32 (11753110_a_at) / Fold change /veh SNX32 (11753110_a_at) / RFU CDHR5 (11726645_a_at) / Fold change /veh CDHR5 (11726645_a_at) / RFU RCAN1 (11760418_a_at) / Fold change /veh RCAN1 (11760418_a_at) / RFU FAM167A (11723789_a_at) / Fold change /veh FAM167A (11723789_a_at) / RFU FAM26E (11764081_at) / Fold change /veh FAM26E (11764081_at) / RFU ISYNA1 (11749810_s_at) / Fold change /veh ISYNA1 (11749810_s_at) / RFU ACY1 (11761880_at) / Fold change /veh ACY1 (11761880_at) / RFU 11764098_at / Fold change /veh 11764098_at / RFU SAMD14 (11745864_x_at) / Fold change /veh SAMD14 (11745864_x_at) / RFU NPB (11741838_a_at) / Fold change /veh NPB (11741838_a_at) / RFU TMPRSS6 (11731388_a_at) / Fold change /veh TMPRSS6 (11731388_a_at) / RFU KRTAP10-2 (11738614_at) / Fold change /veh KRTAP10-2 (11738614_at) / RFU ARHGAP8 /// PRR5-ARHGAP8 (11727945_x_at) / Fold change /veh ARHGAP8 /// PRR5-ARHGAP8 (11727945_x_at) / RFU KRTAP5-7 /// NADSYN1 (11734609_at) / Fold change /veh KRTAP5-7 /// NADSYN1 (11734609_at) / RFU RASL12 (11751679_a_at) / Fold change /veh RASL12 (11751679_a_at) / RFU CDKN2B (11736163_a_at) / Fold change /veh CDKN2B (11736163_a_at) / RFU PRF1 (11729649_at) / Fold change /veh PRF1 (11729649_at) / RFU, ZNF638 /// ZNF638-IT1 / Fold change vs veh, ZNF638 /// ZNF638-IT1 / RFU, PANK3 / Fold change vs veh, PANK3 / RFU, SH3YL1 / Fold change vs veh, SH3YL1 / RFU, ZEB2 / Fold change vs veh, ZEB2 / RFU, NRIP1 / Fold change vs veh, NRIP1 / RFU, PTTG1IP / Fold change vs veh, PTTG1IP / RFU, CAPN2 / Fold change vs veh, CAPN2 / RFU, MED14 / Fold change vs veh, MED14 / RFU, SNORA58 / Fold change vs veh, SNORA58 / RFU, C1orf63 / Fold change vs veh, C1orf63 / RFU, LRRFIP1 / Fold change vs veh, LRRFIP1 / RFU, NDUFAF7 / Fold change vs veh, NDUFAF7 / RFU, SLC12A2 / Fold change vs veh, SLC12A2 / RFU, IBTK / Fold change vs veh, IBTK / RFU, ESF1 / Fold change vs veh, ESF1 / Fold change vs veh, TMEM50B / RFU, TAOK1 / Fold change vs veh, TAOK1 / RFU, ACBD3 / Fold change vs veh, ACBD3 / RFU, TMA16 / Fold change vs veh, TMA16 / RFU, RWDD3 / Fold change vs veh, RWDD3 / RFU, BCAT1 / Fold change vs veh, BCAT1 / RFU, EDEM3 / Fold change vs veh, EDEM3 / RFU, TMEM33 / Fold change vs veh, TMEM33 / RFU, WDR75 / Fold change vs veh, WDR75 / RFU, AHCTF1 / Fold change vs veh, AHCTF1 / RFU, TFRC / Fold change vs veh, TFRC / RFU, ZDHHC17 / Fold change vs veh, ZDHHC17 / RFU, NOM1 / Fold change vs veh, NOM1 / RFU, ARL8B / Fold change vs veh, ARL8B / RFU, ZBTB11 / Fold change vs veh, ZBTB11 / RFU, TAMM41 / Fold change vs veh, TAMM41 / RFU, KIAA1704 /// LOC100996395 / Fold change vs veh, KIAA1704 /// LOC100996395 / RFU, ING1 / Fold change vs veh, ING1 / RFU, TRMT61B / Fold change vs veh, TRMT61B / RFU, FUBP3 / Fold change vs veh, FUBP3 / RFU, TP53 / Fold change vs veh, TP53 / RFU, TNKS2 / Fold change vs veh, TNKS2 / RFU, ZFP14 / Fold change vs veh, ZFP14 / RFU, ACTR2 / Fold change vs veh, ACTR2 / RFU, PPP3R1 / Fold change vs veh, PPP3R1 / RFU, PIK3R1 / Fold change vs veh, PIK3R1 / RFU, HNRNPA1 / Fold change vs veh, HNRNPA1 / RFU, RNF170 / Fold change vs veh, RNF170 / RFU, ZNF28 / Fold change vs veh, ZNF28 / RFU, RNGTT / Fold change vs veh, RNGTT / RFU, OGT / Fold change vs veh, OGT / RFU, BRD1 / Fold change vs veh, BRD1 / RFU, MARS / Fold change vs veh, MARS / RFU, ZNF655 / Fold change vs veh, ZNF655 / RFU, FAHD1 / Fold change vs veh, FAHD1 / RFU, BDP1 / Fold change vs veh, BDP1 / RFU, LRRCC1 / Fold change vs veh, LRRCC1 / RFU, ARID1A / Fold change vs veh, ARID1A / RFU, ZNF146 / Fold change vs veh, ZNF146 / RFU, ZNF330 / Fold change vs veh, ZNF330 / RFU, GPN3 / Fold change vs veh, GPN3 / RFU, C9orf123 / Fold change vs veh, C9orf123 / RFU, N4BP2L2 / Fold change vs veh, N4BP2L2 / RFU, ARFIP1 / Fold change vs veh, ARFIP1 / RFU, FAM179B / Fold change vs veh, FAM179B / RFU, BCL10 / Fold change vs veh, BCL10 / RFU, UHRF1BP1L / Fold change vs veh, UHRF1BP1L / RFU, BET1 / Fold change vs veh, BET1 / RFU, CNOT2 / Fold change vs veh, CNOT2 / RFU, ZNF268 / Fold change vs veh, ZNF268 / Fold change vs veh, ZNF507 / RFU, DGCR2 / Fold change vs veh, DGCR2 / RFU, WDSUB1 / Fold change vs veh, WDSUB1 / Fold change vs veh, HSP90B1 /// MIR3652 / RFU, ADSS / Fold change vs veh, ADSS / RFU, GK / Fold change vs veh, GK / RFU, ZNF148 / Fold change vs veh, ZNF148 / RFU, TAF9 / Fold change vs veh, TAF9 / RFU, SLC1A5 / Fold change vs veh, SLC1A5 / RFU, SLMO2 / Fold change vs veh, SLMO2 / RFU, ABCC4 / Fold change vs veh, ABCC4 / RFU, LOC101060439 /// RAP1B / Fold change vs veh, LOC101060439 /// RAP1B / RFU, RFX7 / Fold change vs veh, RFX7 / RFU, GTPBP10 / Fold change vs veh, GTPBP10 / RFU, CNEP1R1 / Fold change vs veh, CNEP1R1 / RFU, BIVM-ERCC5 /// ERCC5 / Fold change vs veh, BIVM-ERCC5 /// ERCC5 / RFU, ILF3 / Fold change vs veh, ILF3 / RFU 11762660_at / Fold change /veh 11762660_at / RFU VCAN (11757783_s_at) / Fold change /veh VCAN (11757783_s_at) / RFU DDX43 (11728927_at) / Fold change /veh DDX43 (11728927_at) / RFU KRT8 (11758188_x_at) / Fold change /veh KRT8 (11758188_x_at) / RFU NKD1 (11759106_at) / Fold change /veh NKD1 (11759106_at) / RFU SRD5A1 (11742802_a_at) / Fold change /veh SRD5A1 (11742802_a_at) / RFU TPSAB1 /// TPSB2 (11721975_s_at) / Fold change /veh TPSAB1 /// TPSB2 (11721975_s_at) / RFU GSTM3 (11746129_a_at) / Fold change /veh GSTM3 (11746129_a_at) / RFU IL23R (11737362_x_at) / Fold change /veh IL23R (11737362_x_at) / RFU TMEM51 (11727254_a_at) / Fold change /veh TMEM51 (11727254_a_at) / RFU PIWIL2 (11732686_x_at) / Fold change /veh PIWIL2 (11732686_x_at) / RFU ORM1 (11744905_x_at) / Fold change /veh ORM1 (11744905_x_at) / RFU CCDC152 (11743942_at) / Fold change /veh CCDC152 (11743942_at) / RFU ECM1 (11717891_a_at) / Fold change /veh ECM1 (11717891_a_at) / RFU IL23R (11748794_a_at) / Fold change /veh IL23R (11748794_a_at) / RFU TNFAIP8L3 (11732012_x_at) / Fold change /veh TNFAIP8L3 (11732012_x_at) / RFU MBOAT4 (11741988_at) / Fold change /veh MBOAT4 (11741988_at) / RFU 11764193_at / Fold change /veh 11764193_at / RFU TMEM53 (11763286_at) / Fold change /veh TMEM53 (11763286_at) / RFU MAGEB2 (11727129_at) / Fold change /veh MAGEB2 (11727129_at) / RFU TMEM200A (11744735_a_at) / Fold change /veh TMEM200A (11744735_a_at) / RFU CCDC152 (11751479_a_at) / Fold change /veh CCDC152 (11751479_a_at) / RFU FAM211A (11726209_a_at) / Fold change /veh FAM211A (11726209_a_at) / RFU RGS16 (11746705_a_at) / Fold change /veh RGS16 (11746705_a_at) / RFU VCAN (11755009_s_at) / Fold change /veh VCAN (11755009_s_at) / RFU RHOB (11743442_s_at) / Fold change /veh RHOB (11743442_s_at) / RFU RGS16 (11720943_a_at) / Fold change /veh RGS16 (11720943_a_at) / RFU RGS16 (11720944_at) / Fold change /veh RGS16 (11720944_at) / RFU, VPS4B / Fold change vs veh, VPS4B / RFU, CREB1 / Fold change vs veh, CREB1 / RFU, DNAJC13 / Fold change vs veh, DNAJC13 / RFU, GNAQ / Fold change vs veh, GNAQ / RFU, CDK5R1 / Fold change vs veh, CDK5R1 / RFU, ZRANB3 / Fold change vs veh, ZRANB3 / RFU, CUL4A / Fold change vs veh, CUL4A / RFU, CCNY / Fold change vs veh, CCNY / RFU, UFL1 / Fold change vs veh, UFL1 / RFU, COG3 / Fold change vs veh, COG3 / RFU, DIAPH2 / Fold change vs veh, DIAPH2 / RFU, SKA2 / Fold change vs veh, SKA2 / RFU, AFF3 / Fold change vs veh, AFF3 / RFU, LMF1 / Fold change vs veh, LMF1 / RFU, IPO11 / Fold change vs veh, IPO11 / RFU, DFFB / Fold change vs veh, DFFB / RFU, FOXP1 / Fold change vs veh, FOXP1 / RFU, CARD8 / Fold change vs veh, CARD8 / RFU, STRN3 / Fold change vs veh, STRN3 / RFU, ADK / Fold change vs veh, ADK / RFU, RASSF2 / Fold change vs veh, RASSF2 / RFU, WIPF1 / Fold change vs veh, WIPF1 / RFU, LARP1B / Fold change vs veh, LARP1B / RFU, RASA1 / Fold change vs veh, RASA1 / RFU, RB1 / Fold change vs veh, RB1 / RFU, PPFIA1 / Fold change vs veh, PPFIA1 / RFU, MAT2A / Fold change vs veh, MAT2A / RFU, CCT5 / Fold change vs veh, CCT5 / RFU, WDR92 / Fold change vs veh, WDR92 / RFU, CUX1 / Fold change vs veh, CUX1 / RFU, TTC7A / Fold change vs veh, TTC7A / RFU, TMEM135 / Fold change vs veh, TMEM135 / RFU, DEPTOR / Fold change vs veh, DEPTOR / RFU, CPM / Fold change vs veh, CPM / RFU, DNAJB6 / Fold change vs veh, DNAJB6 / RFU, CACNA2D3 / Fold change vs veh, CACNA2D3 / RFU, DTX4 / Fold change vs veh, DTX4 / RFU, TFCP2 / Fold change vs veh, TFCP2 / RFU, GMCL1 /// GMCL1P1 / Fold change vs veh, GMCL1 /// GMCL1P1 / RFU, AEBP2 / Fold change vs veh, AEBP2 / RFU, SNHG1 /// SNORD22 /// SNORD25 /// SNORD26 /// SNORD27 /// SNORD28 /// SNORD29 /// SNORD31 / Fold change vs veh, SNHG1 /// SNORD22 /// SNORD25 /// SNORD26 /// SNORD27 /// SNORD28 /// SNORD29 /// SNORD31 / Fold change (Aza/veh), C12orf56 (ProbeSet 11735607_a_at) / Fold change (ACY-1035/veh), C12orf56 (ProbeSet 11735607_a_at) / Fold change (Aza/veh), FGFR1OP (ProbeSet 11751329_s_at) / Fold change (ACY-1035/veh), FGFR1OP (ProbeSet 11751329_s_at) / Fold change (Aza/veh), VPS36 (ProbeSet 11739960_a_at) / Fold change (ACY-1035/veh), VPS36 (ProbeSet 11739960_a_at) / RFU SYPL1 (11715823_x_at) / Fold change /veh SYPL1 (11715823_x_at) / RFU IGFBP7 (11715501_s_at) / Fold change /veh IGFBP7 (11715501_s_at) / RFU REEP3 (11722064_at) / Fold change /veh REEP3 (11722064_at) / RFU IGLL1 (11728026_x_at) / Fold change /veh IGLL1 (11728026_x_at): dose or concentration left out as unconfirmed.

As to `Nc1ccc(-c2cccs2)cc1NC(=O)c1ccc2c(c1)cc(C1CC1)n2CCN1CCOCC1` [ACY-1035], the “RFU, CAPN2” value is given as 162.48 RFU.

The values above are taken from paper PMC5218480 (PLoS ONE, 2017).
